These results are taken from patent US20250144067A1, “PERSONALIZED STARVATION THERAPY FOR CANCER” (Faeth Therapeutics, Inc., priority 2021, published 2025).

The subject of test [1] is NCI-H292 lung cancer cells. In words: FDA drug screening, complete media vs cholesterol-free media without statin (TABLE 1). In kind it is cell-based, human.
Test [2] has as its system NCI-H292 lung cancer cells. In words: FDA drug screening, complete media vs cholesterol-free media with simvastatin (TABLE 2). Type of test: cell-based, human.
[3] abbreviates: NCI-H292 cells, cholesterol-free media without statin, FDA drug library screen.
Where [4] appears, read: NCI-H292 cells, complete media, FDA drug library screen.
Setting [5] is: complete vs cholesterol-free media, >0 enhanced anti-cancer activity, about 0 neutral, <0 antagonist.
Where [6] appears, read: NCI-H292 cells, FDA drug library screen, cholesterol-free media with simvastatin 0.04 μM.
Setting [7] is: NCI-H292 cells, FDA drug library screen, complete media.
[8] abbreviates: complete media minus cholesterol-free media + simvastatin, >0 enhanced anti-cancer activity, about 0 neutral, <0 antagonist.
Where [9] appears, read: NCI-H292 cells, cholesterol-free media without statin.
[10] abbreviates: complete vs cholesterol-free media, greater than 0 enhanced anti-cancer activity, about 0 neutral, below 0 antagonists.
The mark [11] stands for this setting: complete media vs cholesterol-free media + simvastatin (0.04 μM), >0 enhanced anti-cancer activity, about 0 neutral, <0 antagonist.
Where [12] appears, read: NCI-H292 cells, FDA library drug in cholesterol-free media with simvastatin 0.04 μM.
[13] abbreviates: NCI-H292 cells, FDA library drug in complete media.
[14] abbreviates: Complete minus Cholesterol-free, greater than 0 enhanced anti-cancer activity, about 0 neutral, below 0 antagonist.
[15] abbreviates: NCI-H292 cells, FDA drug library screen, cholesterol-free media without statin.
The mark [16] stands for this setting: Complete minus Cholesterol-free, greater than 0 enhanced anti-cancer activity, about 0 neutral, below 0 antagonists.
Setting [17] is: NCI-H292 cells in cholesterol-free media without statin.
[18] abbreviates: NCI-H292 cells in complete media.
Where [19] appears, read: Complete minus Cholesterol-free, >0 enhanced anti-cancer activity, about 0 neutral, <0 antagonist.
[20] abbreviates: NCI-H292 cells, drug in cholesterol-free media with simvastatin 0.04 μM.
The mark [21] stands for this setting: NCI-H292 cells, drug in complete media.

Where a name gives a salt, the structure may show the parent alone. Read-outs that look alike come from different tables or passages of the source.

For the molecule `c1ccc2[nH]c(-c3cscn3)nc2c1` [Thiabendazole], the Cholesterol-free in test [1] (setting [3]) amounted to 0.802. In test [1] (setting [4]), this molecule returned a Complete of 1.484. Further, the values for the Difference in test [1] (setting [5]) and in test [2] (setting [8]) were 0.68 and 0.23, respectively. For the same molecule, the “Cholesterol-free media + simvastatin (0.04 μM)” value in test [2] (setting [6]) worked out at 0.9537. Besides, the “Complete Media” value in test [2] (setting [7]) came to 1.187.

The molecule `C[C@H]1[C@H](OC(=O)CCC(=O)O)O[C@@H]2O[C@@]3(C)CC[C@H]4[C@H](C)CC[C@@H]1[C@@]24OO3` [Artesunate] displayed a Cholesterol-free in test [1] (setting [9]) of 0.9732. This molecule came in with a Complete in test [1] (NCI-H292 cells, complete media) of 0.63. For the same molecule, the Difference in test [1] (setting [10]) is listed as −0.34; in test [2] (setting [11]), −0.12. For the same molecule, the “Cholesterol-free media + simvastatin (0.04 μM)” value in test [2] (setting [6]) is 1.06. Moreover, the “Complete Media” value in test [2] (setting [7]) was found to be 0.9407.

In test [1] (setting [9]), `CCCCN(CCCC)CCC(O)c1cc2c(Cl)cc(Cl)cc2c2cc(C(F)(F)F)ccc12` (centres unmarked) [Halofantrine hydrochloride] displayed a Cholesterol-free of 1.176. In test [1] (NCI-H292 cells, complete media), this molecule gave a Complete of 0.7446. The values for the Difference in test [1] (setting [10]) and in test [2] (setting [11]) were −0.43 and −0.30, respectively. The “Cholesterol-free media + simvastatin (0.04 μM)” value in test [2] (setting [12]) was found to be 1.233. In addition, the “Complete Media” value in test [2] (setting [13]) turned out to be 0.9282.

As to `O=S(=O)(c1cccc2cnccc12)N1CCCNCC1` [Fasudil (Hydrochloride)], the Difference was −0.12 in test [1] (setting [14]) and 0.24 in test [2] (setting [8]). In test [1] (setting [15]), the Cholesterol-free was 1.121. In addition, the Complete in test [1] (setting [7]) came to 1. Further, the “Cholesterol-free media + simvastatin (0.04 μM)” value in test [2] (setting [6]) is 0.9921. For the same molecule, the “Complete Media” value in test [2] (setting [7]) amounted to 1.233.

Turning to `CNC(=C[N+](=O)[O-])NCCSCc1ccc(CN(C)C)o1` [Ranitidine (hydrochloride)], the Difference in test [1] (setting [16]) was −0.55; in test [2] (setting [11]), −0.45. In test [1] (setting [17]), this molecule had a Cholesterol-free of 1.186. The Complete in test [1] (setting [18]) worked out at 0.6384. Besides, the “Cholesterol-free media + simvastatin (0.04 μM)” value in test [2] (setting [12]) was 1.27. Besides, in test [2] (setting [13]), the “Complete Media” value was 0.8219.

Regarding `C[C@]12C=CC(=O)C=C1CC[C@H]1[C@@H]3C[C@@H](O)[C@](O)(C(=O)CO)[C@@]3(C)C[C@H](O)[C@@]12F` [Triamcinolone], the Difference in test [1] (setting [19]) was −0.27; in test [2] (complete media minus cholesterol-free media + simvastatin (0.04 μM), >0 enhanced anti-cancer activity, about 0 neutral, <0 antagonist), −0.04. In addition, the Cholesterol-free in test [1] (setting [9]) came out at 0.8896. Besides, the Complete in test [1] (NCI-H292 cells, complete media) worked out at 0.6155. Moreover, in test [2] (NCI-H292 cells, cholesterol-free media with simvastatin 0.04 μM, FDA drug library screen (TABLE 2)), the “Cholesterol-free media + simvastatin (0.04 μM)” value was found to be 1.201.

Molecule `Cc1cc(C2=NOC(c3cc(Cl)cc(Cl)c3)(C(F)(F)F)C2)ccc1C(=O)NCC(=O)NCC(F)(F)F` (centres unmarked) [Fluralaner] came in with a Cholesterol-free in test [1] (setting [3]) of 0.6434. In test [1] (setting [4]), this molecule registered a Complete of 1.375. The Difference in test [1] (complete vs cholesterol-free media, […]) is 0.73; in test [2] (complete media vs cholesterol-free media + simvastatin (0.04 μM), […]), −0.20. Moreover, in test [2] (setting [20]), the “Cholesterol-free media + simvastatin (0.04 μM)” value came out at 1.609. Besides, the “Complete Media” value in test [2] (setting [21]) is reported as 1.41.

With `OCc1ccccc1` [Benzyl alcohol], the Difference in test [1] (setting [14]) was −0.14; in test [2] (setting [8]) it was 0.19. The Cholesterol-free in test [1] (setting [15]) is reported as 1.033. Also, the Complete in test [1] (setting [7]) is 0.8945. Also, the “Cholesterol-free media + simvastatin (0.04 μM)” value in test [2] (setting [6]) came out at 0.8765. Further, the “Complete Media” value in test [2] (setting [7]) is listed as 1.062.

For the molecule `S=P(N1CC1)(N1CC1)N1CC1` [Thio-TEPA], in test [1], the Cholesterol-free was 0.9267, the Complete was determined as 0.7941 and the Difference is listed as −0.13. Moreover, in test [2], the “Cholesterol-free media + simvastatin (0.04 μM)” value is recorded as 0.6864, the “Complete Media” value stood at 0.8177 and the Difference amounted to 0.13.

Take Sitagliptin (phosphate monohydrate): the Cholesterol-free in test [1] (setting [9]) was found to be 1.047. In addition, the Complete in test [1] (NCI-H292 cells, complete media) is on record as 0.6455. In addition, the Difference is on record as −0.40 in test [1] (setting [10]) and −0.17 in test [2] (setting [11]). In test [2] (setting [20]), the “Cholesterol-free media + simvastatin (0.04 μM)” value is given as 1.13. Also, in test [2] (setting [21]), the “Complete Media” value was determined as 0.959.

As to `N#CC[C@H](C1CCCC1)n1cc(-c2ncnc3[nH]ccc23)cn1` [Ruxolitinib (S enantiomer)], the Difference in test [1] (setting [16]) is −0.48; in test [2] (setting [11]), −0.26. This molecule yielded a Cholesterol-free in test [1] (setting [17]) of 1.03. Besides, the Complete in test [1] (setting [18]) turned out to be 0.5541. Also, in test [2] (setting [20]), the “Cholesterol-free media + simvastatin (0.04 μM)” value was found to be 0.9634. Also, the “Complete Media” value in test [2] (setting [21]) came to 0.7007.

For the molecule `CN1CCC2=C(C1)c1ccccc1Cc1ccccc12` [Setiptiline], the Difference was −0.08 in test [1] (setting [14]) and −0.19 in test [2] (setting [11]). This molecule also had a Cholesterol-free in test [1] (setting [15]) of 1.103. Further, the Complete in test [1] (setting [7]) is recorded as 1.024. For the same molecule, the “Cholesterol-free media + simvastatin (0.04 μM)” value in test [2] (setting [20]) is reported as 1.048. Also, the “Complete Media” value in test [2] (setting [21]) was 0.8546.

In turn, `CC(C)=CCC/C(C)=C/CC/C(C)=C/CC/C=C(\C)CC/C=C(\C)CCC=C(C)C` [Squalene] displayed a Cholesterol-free in test [1] (setting [3]) of 1.273. In test [1] (setting [4]), this molecule had a Complete of 1.566. The values for the Difference in test [1] (setting [5]) and in test [2] (setting [11]) were 0.29 and −0.19, respectively. Further, in test [2] (setting [20]), the “Cholesterol-free media + simvastatin (0.04 μM)” value turned out to be 0.9877. The “Complete Media” value in test [2] (setting [21]) was 0.7931.

As for `C[S+](CC[C@H](N)C(=O)[O-])C[C@H]1O[C@@H](n2cnc3c(N)ncnc32)[C@H](O)[C@@H]1O.Cc1ccc(S(=O)(=O)O)cc1.O=S(=O)(O)O.O=S(=O)(O)O` (some centres unmarked), the Difference is −0.11 in test [1] (setting [14]) and −0.12 in test [2] (setting [11]). For the same molecule, the Cholesterol-free in test [1] (setting [15]) came to 1.112. In test [1] (setting [7]), the Complete turned out to be 1.004. Further, the “Cholesterol-free media + simvastatin (0.04 μM)” value in test [2] (setting [6]) is 1.19. Also, the “Complete Media” value in test [2] (setting [7]) is 1.075.

Molecule `Cc1ncc([N+](=O)[O-])n1C` [Dimetridazole] gave a Cholesterol-free in test [1] (setting [9]) of 1.219. The Complete in test [1] (NCI-H292 cells, complete media) is 0.8738. For the same molecule, the Difference in test [1] (setting [10]) is −0.35; in test [2] (setting [11]), −0.71. For the same molecule, the “Cholesterol-free media + simvastatin (0.04 μM)” value in test [2] (setting [12]) came to 1.602. Also, in test [2] (setting [13]), the “Complete Media” value turned out to be 0.8915.

As for `CC(=O)NS(=O)(=O)c1ccc(N)cc1` [Sulfacetamide], the figures for the Difference in test [1] (setting [14]) and in test [2] (setting [8]) were −0.14 and 0.20, respectively. For the same molecule, the Cholesterol-free in test [1] (setting [15]) was 1.146. The same molecule yielded a Complete in test [1] (setting [7]) of 1.008. In addition, the “Cholesterol-free media + simvastatin (0.04 μM)” value in test [2] (setting [6]) is reported as 0.6778. For the same molecule, in test [2] (setting [7]), the “Complete Media” value is recorded as 0.8793.

As for `CC(=O)OCC(=O)[C@@]12OC3(CCCC3)O[C@@H]1C[C@H]1[C@@H]3CCC4=CC(=O)C=C[C@]4(C)[C@@]3(F)[C@@H](O)C[C@@]12C` [Amcinonide], the values for the Difference in test [1] (setting [14]) and in test [2] (setting [8]) were −0.16 and 0.26, respectively. The Cholesterol-free in test [1] (setting [15]) turned out to be 1.081. In test [1] (setting [7]), this molecule came in with a Complete of 0.9188. The “Cholesterol-free media + simvastatin (0.04 μM)” value in test [2] (setting [6]) stood at 0.5029. The “Complete Media” value in test [2] (setting [7]) turned out to be 0.766.

`CN(C)C/C=C/C(=O)Nc1cc2c(Nc3ccc(F)c(Cl)c3)ncnc2cc1O[C@H]1CCOC1` [Afatinib]: the results for the Difference in test [1] (setting [19]) and in test [2] (setting [8]) were 0.00 and 0.04, respectively. The Cholesterol-free in test [1] (setting [3]) is listed as 0.02665. This molecule also registered a Complete in test [1] (setting [4]) of 0.0309. Further, the “Cholesterol-free media + simvastatin (0.04 μM)” value in test [2] (NCI-H292 cells, cholesterol-free media with simvastatin 0.04 μM, cell growth value in FDA drug screen) is listed as 0.1756. The “Complete Media” value in test [2] (NCI-H292 cells, complete media, cell growth value in FDA drug screen) stood at 0.2197.

`CCN(CC)CCOC(=O)C1(C2CCCCC2)CCCCC1` [Dicyclomine (hydrochloride)] showed a Cholesterol-free in test [1] (setting [9]) of 1.211. The molecule also yielded a Complete in test [1] (NCI-H292 cells, complete media) of 0.8491. The Difference was −0.36 in test [1] (setting [10]) and −0.08 in test [2] (setting [11]). Also, the “Cholesterol-free media + simvastatin (0.04 μM)” value in test [2] (setting [6]) is reported as 0.9961. Moreover, the “Complete Media” value in test [2] (setting [7]) was found to be 0.9187.
